Data as given in US20070010582A1, “Use of N-chlorotaurine for treatment of oozing tissue deficiencies” (priority 2005, published 2007).

Experiments:
[1] = Pilot study (open phase IIa) after tympanoplasty: tolerability; assay type: in vivo, human; details: 12 patients
Protocol: (§1) After removing the ear-tamponade, which remained in place for 2 to 3 weeks postoperatively, 3 ml of the 1% aqueous NCT solution was applied once daily to the outer ear canal. The endpoint of the treatment was defined as a completely dry canal, corresponding to a clinical score of zero (see below for scoring).
The second criterion was subjective pain, ascertained by a visual analogue scale.
Before and at the end of the study an audiogram was performed in all patients.
All subjects completed the study.

outer ear canal = experiment: Pilot study (open phase IIa), postoperative irrigation of external auditory canal after tympanoplasty: efficacy; assay type: in vivo, human; details: 12 patients
Protocol: Local irrigations of the external auditory canal with 3 ml of 1% N-chlorotaurine solution were performed once daily until the canal was dry.
An open phase IIa study was performed in 12 patients after tympanoplasty. They received a single-shot antibiotic therapy with 2 g Spizef (cefotiam) i.v. perioperatively.
as §1
The primary criterion for the judgement of the status of the external meatus was a six-scale clinical score (0-5) based on visual observation via ear microscopy (zero=dry outer ear canal; 5=moist outer ear canal with inflammation).
Clinical examination of the outer ear canal was performed daily for detection of moisture, signs of infection, and judgement of epithelisation of the neo-tympanon.
A completely dry external meatus (score zero) was considered as the endpoint criterion for the termination of the study.
Moisture and inflammation of the external auditory canal during and after irrigation with NCT were compared to those before treatment using the Wilcoxon test. P-values <0.05 were considered to indicate statistical significance. Due to the limited number of patients no corrections for multiple comparisons were applied.

[2] = pH of aqueous NCT solution; assay type: physicochemical; details: no buffers
oozing ear channel = experiment: Instillation/rinsing of the oozing ear channel with NCT solution after tympanoplasty (case reports); assay type: in vivo, human
Description: Rinsing the ear channel with NCT solution provokes in general a drying of the ear channel and the tympanoplastic within 1-2 days.
A human patient with a traumatic perforation of the tympanic membrane was provided with a tympanoplasty. After removing incrustations and granulation tissue, the destroyed tympanic membrane was excised and substituted by a fascia temporalis. After taking away the tamponade, the microbiological culture of a swab from the reconstructed tympanic membrane and the ear channel was sterile. Subsequently, the oozing ear channel was treated one time daily for two days by instillation of 2 mL of aqueous 1% NCT solution. […] The complete epithelization was achieved 3 days earlier than by the conventional treatment with fuchsine.
A human patient suffering from a perforation of the tympanic membrane caused by a chronic inflammation of the middle ear received tympanoplasty. After removing incrustations and granulation tissue, the destroyed tympanic membrane was excised and substituted by a fascia temporalis. After taking away the tamponade, the microbiological culture of a swab from the reconstructed tympanic membrane and the ear channel was sterile. Subsequently, the oozing and swollen ear channel was treated one time daily for five days by instillation of 2 mL of aqueous 1% NCT solution. […] The complete epithelization was achieved 3 days earlier than by the conventional treatment with fuchsine.

[3] = Storage stability of aqueous NCT solution; assay type: physicochemical; details: 1% (55 mM) aqueous solution stored at 2-4° C.
Protocol: Pure NCT as a crystalline sodium salt was dissolved in sterile distilled water to a concentration of 1% (55 mM). Purity was verified by iodometric titration and spectrophotometry. […] Solutions were stored at 2-4° C., where they are stable for 1 year, and allowed to reach room temperature before application to the patients.

[4] = test system: open leg ulcer with fibrous coating; experiment: Wound dressing soaked with NCT solution on open leg ulcer with fibrous coating (case report); assay type: in vivo, human; details: single patient
Protocol: A human patient suffering from an open leg ulcer with fibrous coating caused by a burn accident was treated two times daily with wound dressing soaked with aqueous 1% NCT solution. […] Microbiological cultures of swabs before and after therapy were sterile.

[5] = single patient after tympanoplasty, 2 mL aqueous 1% NCT solution one time daily

**Q.** With O=S(=O)(O)CCNCl [NCT, N-chlorotaurine] as the compound, how does the “allergic reactions during the whole period of treatment” value ([1]; 3 ml 1% NCT once daily) read?
**A.** Its value is “no signs of allergic reactions”.

**Q.** And the “damage to the inner ear (audiogram before and after treatment)” value ([1]; 3 ml 1% NCT once daily)?
**A.** The value was “no signs of damage to the inner ear”.

**Q.** What about the dizziness or nystagmus ([1]; 3 ml 1% NCT once daily) of the same compound?
**A.** The dizziness or nystagmus was “No dizziness or nystagmus occurred”.

**Q.** What about the “subjective pain (visual analogue scale)” value ([1]; 3 ml 1% NCT once daily) of the same compound?
**A.** Its value is “without occurrence of any pain”.

**Q.** And the tolerability of therapy ([1]; 3 ml 1% NCT once daily to outer ear canal)?
**A.** Its tolerability of therapy is “tolerated very well”.

**Q.** What about the “epithelisation of the new tympanon on ear microscopy” value (outer ear canal; 3 ml 1% NCT once daily) of the same compound?
**A.** Its value is “proceeded regularly without granulation”.

**Q.** And the “infection in the postoperative course” value (outer ear canal; 3 ml 1% NCT once daily)?
**A.** Its value is “No infection occurred”.

**Q.** And the “necessary time for achieving a score of zero (range)” value (outer ear canal; 3 ml 1% NCT once daily)?
**A.** Its value is 2 to 5 days.

**Q.** And the “time needed for complete epithelisation (mean±SD)” value (outer ear canal; 3 ml 1% NCT once daily)?
**A.** The value was 22.6 ± 3.5 days.

**Q.** And the “time needed for complete epithelisation (range)” value (outer ear canal; 3 ml 1% NCT once daily)?
**A.** The value was 18 to 31 days.

**Q.** What about the “average clinical score (0-5)” value (outer ear canal; 3 ml 1% NCT once daily, days 2-5 vs day 1, Wilcoxon p=0,001-0,002) of the same compound?
**A.** Its value is “decreased daily”.

**Q.** And the “necessary time for achieving a score of zero (mean±SD)” value (outer ear canal; 3 ml 1% NCT once daily, score zero = dry outer ear canal)?
**A.** The value was 2.75 ± 0.87 days.

**Q.** And the “drying of the outer ear canal” value (outer ear canal; 3 ml 1% aqueous NCT once daily)?
**A.** The value was “Rapid drying of the outer ear canal was detected in all patients”.

**Q.** What about the “pH of aqueous solutions” value [2] of the same compound?
**A.** Its value is 8.

**Q.** What about the “period of oozing subsequent to operations” value (oozing ear channel; e.g. otoplastic operations, general statement) of the same compound?
**A.** Its value is “reduced the period of oozing”.

**Q.** And the “drying of the ear channel and the tympanoplastic” value (oozing ear channel; rinsing the ear channel with NCT solution, general statement)?
**A.** The value was 1 to 2 days.

**Q.** What about the “time after which oozing ceased” value (oozing ear channel; single patient after tympanoplasty, 2 mL aqueous 1% NCT solution instilled one time daily) of the same compound?
**A.** The value was “three”.

**Q.** What about the “time after which swelling ceased” value (oozing ear channel; single patient after tympanoplasty, 2 mL aqueous 1% NCT solution instilled one time daily for five days) of the same compound?
**A.** Its value is “two”.

**Q.** And the “complete epithelization achieved earlier than by conventional treatment with fuchsine” value (oozing ear channel; [5])?
**A.** Its value is 3 days.

**Q.** And the “incorporation of the temporal fascia” value (oozing ear channel; [5])?
**A.** The value was “proceeded without problems”.

**Q.** And the “stability of solutions on storage” value [3]?
**A.** Its value is 1 year.

**Q.** And the “treatment time after which fibrous coating disappeared” value ([4]; burn accident, dressing soaked with aqueous 1% NCT solution two times daily)?
**A.** Its value is “three”.

**Q.** And the “microbiological cultures of swabs before and after therapy” value ([4]; aqueous 1% NCT solution two times daily)?
**A.** Its value is “sterile”.

**Q.** And the healing process ([4]; dressing soaked with aqueous 1% NCT solution two times daily)?
**A.** Its healing process is “went on without problems”.
